Source: ChEMBL document CHEMBL1201862, “PubChem BioAssay data set” (2004)
Structures can show the parent of a compound that is named as a salt.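 Briefly, cells in 96-well plates were exposed to five compound concentrations for 48 h, and endpoints were estimated by linear interpolation. GI50 marks 50% less growth.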 Activity calls are given as the source filed them. No stated cut-off is given here; in the data, active = GI50 up to about 1.1 µM and inactive = higher. Non-standard residues stand in square brackets, D forms with d. Residues, ends and D or L forms follow the SMILES beside them. ξ: configuration not given here. *: point of attachment. ξNMeF = CNC(Cc1ccccc1)C(=O)O; NMeV = CN[C@H](C(=O)O)C(C)C; Boc = CC(C)(C)OC(=O)*; OBn = c1ccc(CO*)cc1

Experiments:
Assay in all cases: DTP human tumour cell line panel, 48 h
[1] = test system: HOP-92
[2] = test system: CAKI-1
[3] = test system: LOX IMVI
[4] = test system: M14
[5] = test system: OVCAR-4
[6] = test system: DMS-114
[7] = test system: SNB-78
[8] = test system: A549
[9] = test system: SK-OV-3
[10] = test system: OVCAR-8
[11] = test system: SN12C
[12] = test system: TK-10
[13] = test system: Malme-3M
[14] = test system: BT-549
[15] = test system: NCI-H522
[16] = test system: PC-3
[17] = test system: HT-29
[18] = test system: RXF 393
[19] = test system: NCI-H226
[20] = test system: MDA-N

Row | Compound | GI50 [1] | GI50 [2] | GI50 [3] | GI50 [4] | GI50 [5] | GI50 [6] | GI50 [7] | GI50 [8] | GI50 [9] | GI50 [10] | GI50 [11] | GI50 [12] | GI50 [13] | GI50 [14] | GI50 [15] | GI50 [16] | GI50 [17] | GI50 [18] | GI50 [19] | GI50 [20]
1 | O=c1cc(/C=C/c2ccccc2)c2ccc(O/C(=C\c3ccccc3)c3nc4ccccc4c(=O)o3)cc2o1 | 15.7 µM (inactive) | 25.7 µM (inactive) | 31.1 µM (inactive) | 18.1 µM (inactive) | 27.2 µM (inactive) | 15.1 µM (inactive) | 19.5 µM (inactive) | 30.4 µM (inactive) | 39.4 µM (inactive) | 28.2 µM (inactive) | 26.3 µM (inactive) | 51.4 µM (inactive) | 31.3 µM (inactive) |  |  |  |  |  |  | 
2 | CC(=O)OCC1OC(n2cnc3nc(Br)[nH]c(=O)c32)C(OC(C)=O)C1OC(C)=O (configuration not stated) | > 100 µM (inactive) | > 100 µM (inactive) | > 100 µM (inactive) | > 100 µM (inactive) | > 100 µM (inactive) |  |  | > 100 µM (inactive) | > 100 µM (inactive) | > 100 µM (inactive) | > 100 µM (inactive) | > 100 µM (inactive) | > 100 µM (inactive) | > 100 µM (inactive) | > 100 µM (inactive) | > 100 µM (inactive) | > 100 µM (inactive) | > 100 µM (inactive) | > 100 µM (inactive) | > 100 µM (inactive)
3 | COP(=O)(OC)C(=O)N1N(c2ccc([N+](=O)[O-])cc2)C(=O)C(C)NC1(NNc1ccc([N+](=O)[O-])cc1)P(=O)(OC)OC (configuration not stated) | > 100 µM (inactive) | > 100 µM (inactive) | > 100 µM (inactive) | > 100 µM (inactive) | > 100 µM (inactive) | > 100 µM (inactive) |  | > 100 µM (inactive) |  | > 100 µM (inactive) | > 100 µM (inactive) | > 100 µM (inactive) | > 100 µM (inactive) |  | > 100 µM (inactive) |  |  |  | > 100 µM (inactive) | 
4 | COC(=O)C1CCC(N2C(=O)CCC2C(=O)OC)=N1 (configuration not stated) | > 100 µM (inactive) | > 100 µM (inactive) | > 100 µM (inactive) | > 100 µM (inactive) | > 100 µM (inactive) |  | > 100 µM (inactive) | > 100 µM (inactive) | > 100 µM (inactive) | > 100 µM (inactive) | > 100 µM (inactive) | > 100 µM (inactive) | > 100 µM (inactive) |  | > 100 µM (inactive) |  | > 100 µM (inactive) |  | > 100 µM (inactive) | 
5 | CCOC(=O)NC(=O)c1cn(CCCCCOC(=O)NCCCCCCNC(=O)OCCCCCn2cc(C(=O)NC(=O)OCC)c(=O)[nH]c2=O)c(=O)[nH]c1=O |  | > 100 µM (inactive) | > 100 µM (inactive) | 31 µM (inactive) | > 100 µM (inactive) | > 100 µM (inactive) | > 100 µM (inactive) | > 100 µM (inactive) | > 100 µM (inactive) | > 100 µM (inactive) | > 100 µM (inactive) |  | > 100 µM (inactive) |  | > 100 µM (inactive) |  | > 100 µM (inactive) | > 100 µM (inactive) | > 100 µM (inactive) | 
6 | CC(=O)c1ccc(NC(=O)C(=O)CC(=O)c2sc(-n3nc(-c4ccccc4)cc3-c3ccccc3)nc2C)cc1 |  | > 100 µM (inactive) | > 100 µM (inactive) | > 100 µM (inactive) | > 100 µM (inactive) | > 100 µM (inactive) | > 100 µM (inactive) | > 100 µM (inactive) | > 100 µM (inactive) | > 100 µM (inactive) | > 100 µM (inactive) | > 100 µM (inactive) | > 100 µM (inactive) |  | > 100 µM (inactive) |  | > 100 µM (inactive) | > 100 µM (inactive) | > 100 µM (inactive) | 
7 | O=C1c2ccccc2C(=O)C2C1C1C(=O)c3ccccc3C(=O)C21 (configuration not stated) | > 100 µM (inactive) | > 100 µM (inactive) | 33.3 µM (inactive) | > 100 µM (inactive) | > 100 µM (inactive) | > 100 µM (inactive) |  | > 100 µM (inactive) | > 100 µM (inactive) | > 100 µM (inactive) | > 100 µM (inactive) | > 100 µM (inactive) | 55.1 µM (inactive) |  | 26.2 µM (inactive) |  | > 100 µM (inactive) | > 100 µM (inactive) |  | 
8 | C=C1CC[C@@H](CCC2CCC3(OC2)O[C@]2(O)CC[C@@]3(C)OC2(C)C)C(C)(C)[C@H]1C/C=C1\CCOC1=O (some centres not stated) | 10.5 µM (inactive) | 35.1 µM (inactive) | 0.131 µM (active) | 17.7 µM (inactive) | 12.3 µM (inactive) |  |  | 8.89 µM (inactive) | 20.4 µM (inactive) | 15.3 µM (inactive) | 16.6 µM (inactive) | 39.5 µM (inactive) | 16.7 µM (inactive) | 11.7 µM (inactive) | 5.32 µM (inactive) | 4.61 µM (inactive) | 4.93 µM (inactive) | 14.9 µM (inactive) | 3.91 µM (inactive) | 20 µM (inactive)
9 | Cc1ccc(S(=O)(=O)NNC(=O)c2sc(-c3nc(C)c(C(=O)NNS(=O)(=O)c4ccc(C)cc4)s3)nc2C)cc1 | 31 µM (inactive) | 24 µM (inactive) | > 100 µM (inactive) | > 100 µM (inactive) |  |  | > 100 µM (inactive) | > 100 µM (inactive) | > 100 µM (inactive) | > 100 µM (inactive) | > 100 µM (inactive) | > 100 µM (inactive) | > 100 µM (inactive) |  |  |  | 57.3 µM (inactive) | > 100 µM (inactive) | 50.7 µM (inactive) | 
10 | Cc1cc2c(c(C(N)=O)c1C)-c1cccc(F)c1C2=O | > 100 µM (inactive) |  | > 100 µM (inactive) | > 100 µM (inactive) | > 100 µM (inactive) | > 100 µM (inactive) | > 100 µM (inactive) | > 100 µM (inactive) | > 100 µM (inactive) | > 100 µM (inactive) | > 100 µM (inactive) | > 100 µM (inactive) | > 100 µM (inactive) |  | 41.2 µM (inactive) |  | > 100 µM (inactive) |  |  | 
11 | COc1ccccc1/C=C\c1cnnc2ccccc12 | 0.0372 µM (active) | > 10 µM (inactive) | 3.66 µM (inactive) | > 10 µM (inactive) | > 10 µM (inactive) |  |  | > 10 µM (inactive) | > 10 µM (inactive) | > 10 µM (inactive) | > 10 µM (inactive) | > 10 µM (inactive) | > 10 µM (inactive) | > 10 µM (inactive) | > 10 µM (inactive) | > 10 µM (inactive) | 3.77 µM (inactive) | > 10 µM (inactive) | > 10 µM (inactive) | 3.33 µM (inactive)
12 | COC(=O)C(N)CCCC(N)C(=O)NC(C)C(=O)NC(CCC(=O)NCCNCCNc1c2ccccc2nc2cccc([N+](=O)[O-])c12)C(N)=O (configuration not stated) | 4.83 µM (inactive) | 27.9 µM (inactive) | 14.7 µM (inactive) | 13.4 µM (inactive) | 2.16 µM (inactive) |  |  | 4.67 µM (inactive) | 28 µM (inactive) | 8.79 µM (inactive) | 12.8 µM (inactive) | 16.2 µM (inactive) | 11.3 µM (inactive) | 16.3 µM (inactive) | 1.65 µM (inactive) | 4.79 µM (inactive) | 13.7 µM (inactive) | 8.51 µM (inactive) | 10.9 µM (inactive) | 14.7 µM (inactive)
13 | Cc1nc2nn(Cc3ccccc3)cc2c(=O)o1 |  |  | > 100 µM (inactive) |  |  | > 100 µM (inactive) | > 100 µM (inactive) | > 100 µM (inactive) |  | > 100 µM (inactive) | > 100 µM (inactive) | > 100 µM (inactive) | > 100 µM (inactive) |  |  |  | > 100 µM (inactive) | 44 µM (inactive) | > 100 µM (inactive) | 
14 | CC1(C)CCCCCCC2CC2CCCCCC(C)(C)C1=O (configuration not stated) | 62.5 µM (inactive) | > 100 µM (inactive) | 19.8 µM (inactive) | > 100 µM (inactive) | > 100 µM (inactive) |  |  | 45.7 µM (inactive) | > 100 µM (inactive) | > 100 µM (inactive) | > 100 µM (inactive) | > 100 µM (inactive) | > 100 µM (inactive) | > 100 µM (inactive) | 51.9 µM (inactive) | > 100 µM (inactive) | 42 µM (inactive) | 24.3 µM (inactive) | > 100 µM (inactive) | 88.3 µM (inactive)
15 | OC12c3ccccc3C3CCC4(OCCO4)C3C1c1ccccc12 (configuration not stated) |  | > 100 µM (inactive) | > 100 µM (inactive) | > 100 µM (inactive) | > 100 µM (inactive) | 53.6 µM (inactive) | > 100 µM (inactive) | > 100 µM (inactive) | > 100 µM (inactive) | > 100 µM (inactive) | > 100 µM (inactive) | 83.2 µM (inactive) | > 100 µM (inactive) |  | 65 µM (inactive) |  | 94.2 µM (inactive) | 39.9 µM (inactive) | > 100 µM (inactive) | 
16 | CC(C)[C@@H](C(=O)N(C)[C@H](C(=O)N1CCC[C@H]1C(=O)OCc1ccccc1)C(C)C)N(C)C(=O)C(Cc1ccccc1)N(C)C(=O)[C@H](NC(=O)OC(C)(C)C)C(C)C (some centres not stated) (Boc-[dV][ξNMeF][NMeV][NMeV]P-OBn) | 8.34 µM (inactive) | > 31.6 µM (inactive) | > 31.6 µM (inactive) |  |  | 20.6 µM (inactive) |  | > 31.6 µM (inactive) | > 31.6 µM (inactive) | > 31.6 µM (inactive) |  | > 31.6 µM (inactive) | > 84.9 µM (inactive) |  |  |  | > 31.6 µM (inactive) | > 31.6 µM (inactive) | > 100 µM (inactive) | 
17 | Oc1ccc(C(O)C2CCCCN2)cc1O (configuration not stated) [RIMITEROL HYDROBROMIDE] | > 100 µM (inactive) | > 100 µM (inactive) | 28.4 µM (inactive) | > 100 µM (inactive) | > 100 µM (inactive) |  |  | > 100 µM (inactive) | > 100 µM (inactive) | > 100 µM (inactive) | > 100 µM (inactive) | > 100 µM (inactive) | > 100 µM (inactive) | > 100 µM (inactive) | > 100 µM (inactive) | > 100 µM (inactive) | > 100 µM (inactive) | > 100 µM (inactive) | > 100 µM (inactive) | > 100 µM (inactive)
